These results are taken from patent publication US12410208B2, “(2-acetamidyl)thio-beta-D-galactopyranoside derivatives” (Idorsia Pharmaceuticals Ltd, priority 2020, dated 2025).

Read-outs that look alike come from different tables or passages of the source.

Assay [1] has as its target human Gal-1 (hGal-1) (Homo sapiens, UniProt P09382). Kind of assay: Competitive binding assay: biotinylated hGal-1 binding to microplate-adsorbed asialofetuin (ASF), spectrophotometric. Conditions: hGal-1 binding to asialofetuin; Table 15; R and S epimers of selected Examples also listed; read-out: IC50 (Galectin-1 inhibition). As to the method:
(§1) Biological Assay Evaluation of Compound Inhibitory Activity (IC50)
The inhibitory activity of compounds is determined in competitive binding assays. This spectrophotometric assay measures the binding of biotinylated human Gal-3 (hGal-3) or human Gal-1 (hGal-1), respectively, to a microplate-adsorbed glycoprotein, asialofetuin (ASF) (Proc Natl Acad Sci USA. 2013 Mar. 26; 110(13):5052-7.).
Briefly, compounds are serially diluted in DMSO (working dilutions). ASF-coated 384well plates are supplemented with 22.8 μL/well of biotinylated hGal-3 or hGal-1 in assay buffer (i.e. 300-1000 ng/mL biotinylated hGal-3 or hGal-1) to which 1.2 μL of compound working dilutions are added and mixed.
(§2) Plates are incubated for 3 hours at 4° C., then washed with cold assay buffer (3×50 uL), incubated for 1 hour with 25 μL/well of a streptavidin-peroxidase solution (diluted in assay buffer to 80 ng/mL) at 4° C., followed by further washing steps with assay buffer (3×50 uL). Finally, 25 μL/well of ABTS substrate is added.
(§3) The calculated IC50 values may fluctuate depending on the daily assay performance. Fluctuations of this kind are known to those skilled in the art. IC50 values from several measurements are given as mean values.

For assay [2], the target named is biotinylated human Gal-3 (hGal-3) (Homo sapiens, UniProt P17931). Kind of assay: Competitive binding assay: biotinylated hGal-3 binding to microplate-adsorbed asialofetuin (ASF), spectrophotometric. Here is the method: If not explicitly mentioned otherwise, the inhibition data refer to the binding of biotinylated human Gal-3 (hGal-3).
Sequence of biotinylated human Gal-3 (hGal-3) (P17931 whole entry): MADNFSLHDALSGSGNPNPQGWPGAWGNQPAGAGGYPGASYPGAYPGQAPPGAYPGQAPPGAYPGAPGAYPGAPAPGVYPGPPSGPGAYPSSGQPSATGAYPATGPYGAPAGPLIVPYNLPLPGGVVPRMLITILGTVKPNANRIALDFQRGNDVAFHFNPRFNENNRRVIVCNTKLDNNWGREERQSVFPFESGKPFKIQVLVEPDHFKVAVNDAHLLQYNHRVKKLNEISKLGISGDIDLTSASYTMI
as §1
The inhibitory activity of compounds is determined in competitive binding assays.
Briefly, compounds are serially diluted in DMSO (working dilutions).
as §2, §3

The mark [3] stands for this setting: Table 13, hGal-3, read-out: IC50 (Gal-3 inhibition).
The mark [4] stands for this setting: Gal-3 inhibition, Table 5, read-out: IC50.
[5] abbreviates: Gal-3 inhibition, Table 4, read-out: IC50.
Where [6] appears, read: Table 8, hGal-3, read-out: IC50 (Gal-3 inhibition).

Sequence of human Gal-1 (hGal-1) (P09382 whole entry): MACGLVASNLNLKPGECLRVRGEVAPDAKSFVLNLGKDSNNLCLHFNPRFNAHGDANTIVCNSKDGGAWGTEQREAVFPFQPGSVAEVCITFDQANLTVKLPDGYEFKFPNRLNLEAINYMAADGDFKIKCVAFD

Take “1-(4,4-Difluoropiperidin-1-yl)-2-(4-hydroxy-2,2-dimethyltetrahydro-2H-pyran-4-yl)-2-(((2S,3R,4S,5R,6R)-5-hydroxy-6-(hydroxymethyl)-3-methoxy-4-(4-(3,4,5-trifluorophenyl)-1H-1,2,3-triazol-1-yl)tetrahydro-2H-pyran-2-yl)thio)ethan-1-one [Example 2.43.226.I.]”: the results for the half-maximal inhibitory concentration (IC50) in assay [1] and in assay [2] (setting [3]) were 0.46 µM and 0.25 µM, respectively. For “2-(1,1-Difluoro-6-hydroxyspiro[2.5]octan-6-yl)-1-(4,4-difluoropiperidin-1-yl)-2-(((2S,3R,4S,5R,6R)-5-hydroxy-6-(hydroxymethyl)-3-methoxy-4-(4-(3,4,5-trifluorophenyl)-1H-1,2,3-triazol-1-yl)tetrahydro-2H-pyran-2-yl)thio)ethan-1-one [Example 2.73.226.I.]” the same measures were 0.15 µM and 0.1 µM. For “2-(4,4-Difluoro-1-hydroxycyclohexyl)-2-(((2S,3R,4S,5R,6R)-3,5-dihydroxy-6-(hydroxymethyl)-4-(4-(3,4,5-trifluorophenyl)-1H-1,2,3-triazol-1-yl)tetrahydro-2H-pyran-2-yl)thio)-1-(piperidin-1-yl)ethan-1-one [Example 2.44.208.]”, the IC50 in assay [1] came to 0.21 µM; in assay [2] (setting [4]), 0.07 µM. For “2-(4,4-Difluoro-1-hydroxycyclohexyl)-2-(((2S,3R,4S,5R,6R)-3,5-dihydroxy-6-(hydroxymethyl)-4-(4-(3,4,5-trifluorophenyl)-1H-1,2,3-triazol-1-yl)tetrahydro-2H-pyran-2-yl)thio)-N-(2-fluoro-2-methylpropyl)-N-methylacetamide [Example 2.44.222.]” the same measures were 0.35 µM and 0.13 µM. The corresponding values for “2-(4,4-Difluoro-1-hydroxycyclohexyl)-2-(((2S,3R,4S,5R,6R)-3,5-dihydroxy-6-(hydroxymethyl)-4-(4-(3,4,5-trifluorophenyl)-1H-1,2,3-triazol-1-yl)tetrahydro-2H-pyran-2-yl)thio)-N-ethyl-N-methylacetamide [Example 2.44.203.]” are 0.14 µM and 0.06 µM.

As to “2-(((2S,3R,4S,5R,6R)-3,5-Dihydroxy-6-(hydroxymethyl)-4-(4-(3,4,5-trifluorophenyl)-1H-1,2,3-triazol-1-yl)tetrahydro-2H-pyran-2-yl)thio)-2-(4-hydroxy-1-methylpiperidin-4-yl)-N-isobutyl-N-methylacetamide [Example 2.40.200.]”, the values for the IC50 in assay [1] and in assay [2] (setting [5]) were 0.19 µM and 0.08 µM, respectively. For “2-(((2S,3R,4S,5R,6R)-3,5-Dihydroxy-6-(hydroxymethyl)-4-(4-(3,4,5-trifluorophenyl)-1H-1,2,3-triazol-1-yl)tetrahydro-2H-pyran-2-yl)thio)-N-ethyl-2-(4-hydroxy-1-methylpiperidin-4-yl)-N-methylacetamide [Example 2.40.203.]” the same measures were 0.16 µM and 0.08 µM. For `CN(C)C(=O)C(S[C@@H]1O[C@H](CO)[C@H](O)[C@H](n2cc(-c3cc(F)c(F)c(F)c3)nn2)[C@H]1O)C1(O)CCC(F)(F)CC1` (mixture of isomers) [Example 2.44.201., 2-(4,4-Difluoro-1-hydroxycyclohexyl)-2-(((2S,3R,4S,5R,6R)-3,5-dihydroxy-6-(hydroxymethyl)-4-(4-(3,4,5-trifluorophenyl)-1H-1,2,3-triazol-1-yl)tetrahydro-2H-pyran-2-yl)thio)-N,N-dimethylacetamide], the figures for the IC50 in assay [1] and in assay [2] (setting [4]) were 0.23 µM and 0.1 µM, respectively. As for `CN(CC1(F)CCCC1)C(=O)C(S[C@@H]1O[C@H](CO)[C@H](O)[C@H](n2cc(-c3cc(F)c(F)c(F)c3)nn2)[C@H]1O)C1(O)CCC(F)(F)CC1` (mixture of isomers) [Example 2.44.223., 2-(4,4-Difluoro-1-hydroxycyclohexyl)-2-(((2S,3R,4S,5R,6R)-3,5-dihydroxy-6-(hydroxymethyl)-4-(4-(3,4,5-trifluorophenyl)-1H-1,2,3-triazol-1-yl)tetrahydro-2H-pyran-2-yl)thio)-N-((1-fluorocyclopentyl)methyl)-N-methylacetamide], the IC50 in assay [1] was 0.12 µM; in assay [2] (setting [4]), 0.05 µM. For `CCN(C)C(=O)C(S[C@@H]1O[C@H](CO)[C@H](O)[C@H](n2cc(-c3cc(F)c(F)c(F)c3)nn2)[C@H]1O)C1(O)CCN(S(C)(=O)=O)CC1` (mixture of isomers) [Example 2.47.203., 2-(((2S,3R,4S,5R,6R)-3,5-Dihydroxy-6-(hydroxymethyl)-4-(4-(3,4,5-trifluorophenyl)-1H-1,2,3-triazol-1-yl)tetrahydro-2H-pyran-2-yl)thio)-N-ethyl-2-(4-hydroxy-1-(methylsulfonyl)piperidin-4-yl)-N-methylacetamide], the IC50 amounted to 0.11 µM in assay [1] and 0.03 µM in assay [2] (setting [6]).

With `CN(C)C(=O)C(S[C@@H]1O[C@H](CO)[C@H](O)[C@H](n2cc(-c3cc(F)c(F)c(F)c3)nn2)[C@H]1O)C1(O)CCC(F)(F)CC1` (single isomer, unassigned) [Example 2.44.201R.], the values for the IC50 in assay [1] and in assay [2] (setting [4]) were 1.71 µM and 1.33 µM, respectively. For `CN(C)C(=O)C(S[C@@H]1O[C@H](CO)[C@H](O)[C@H](n2cc(-c3cc(F)c(F)c(F)c3)nn2)[C@H]1O)C1(O)CCC(F)(F)CC1` (single isomer, unassigned) [Example 2.44.201S.] the same measures were 0.18 µM and 0.04 µM. For the compound `CCN(C)C(=O)C(S[C@@H]1O[C@H](CO)[C@H](O)[C@H](n2cc(-c3cc(F)c(F)c(F)c3)nn2)[C@H]1O)C1(O)CCN(S(C)(=O)=O)CC1` (single isomer, unassigned) [Example 2.47.203S.], the IC50 stood at 0.03 µM in assay [1] and 0.01 µM in assay [2] (setting [6]). In the case of `CCN(C)C(=O)C(S[C@@H]1O[C@H](CO)[C@H](O)[C@H](n2cc(-c3cc(F)c(F)c(F)c3)nn2)[C@H]1O)C(O)Cc1ccccc1` (stereo partly drawn) [Example 2.64.203], the IC50 in assay [1] came out at 1.46 µM. On the same count and under the same terms, as for `Cc1cc(-c2cn([C@H]3[C@@H](O)[C@@H](CO)O[C@@H](S[C@@H](C(=O)N(C)C4CC4)C4(O)CCC(F)(F)CC4)[C@@H]3O)nn2)cnc1F` [Example 21.44.221R., (R)-N-Cyclopropyl-2-(4,4-difluoro-1-hydroxycyclohexyl)-2-(((2S,3R,4S,5R,6R)-4-(4-(6-fluoro-5-methylpyridin-3-yl)-1H-1,2,3-triazol-1-yl)-3,5-dihydroxy-6-(hydroxymethyl)tetrahydro-2H-pyran-2-yl)thio)-N-methylacetamide], the figure is 0.22 µM; as for `Cc1cc(-c2cn([C@H]3[C@@H](O)[C@@H](CO)O[C@@H](S[C@H](C(=O)N(C)C4CC4)C4(O)CCC(F)(F)CC4)[C@@H]3O)nn2)cnc1F` [Example 21.44.221S., (S)-N-Cyclopropyl-2-(4,4-difluoro-1-hydroxycyclohexyl)-2-(((2S,3R,4S,5R,6R)-4-(4-(6-fluoro-5-methylpyridin-3-yl)-1H-1,2,3-triazol-1-yl)-3,5-dihydroxy-6-(hydroxymethyl)tetrahydro-2H-pyran-2-yl)thio)-N-methylacetamide], 0.07 µM. Same read-out and setting: as for “(R)-2-(((2S,3R,4S,5R,6R)-3,5-dihydroxy-6-(hydroxymethyl)-4-(4-(3,4,5-trifluorophenyl)-1H-1,2,3-triazol-1-yl)tetrahydro-2H-pyran-2-yl)thio)-3-hydroxy-3-methyl-1-(3-methylazetidin-1-yl)butan-1-one [Example 2.31.205R.]”, the figure is 20 µM.
